In patent US20110212199A1, “AGENT FOR TREATING EYE DISEASES” (priority 2003, published 2011):

Columns and labels:
Format in all cases: in vivo, human
[1] = tested on: primary open angle glaucoma; test: Example 56: primary open angle glaucoma; details: person; 10 mg/l in 2-hydroxypropyl-β-cyclodextrin and γ-cyclodextrin, 1 drop (50 μl) twice a day for a half year
Source text: It can be confirmed that administration of raloxifen with eye drops is effective for the treatment of primary open angle glaucoma.

[2] = tested on: pigmentary retinal degeneration; test: Example 45: pigmentary retinal degeneration; details: person; 60 mg/l included in cyclodextrin, 1 drop (50 μl) twice a day for 3 months
[3] = tested on: normal tension glaucoma; test: Example 42: normal tension glaucoma; details: person; 100 mg/l, 1 drop (50 μl) once a day for 33 days
Source text: It can be confirmed that administration of trans-resveratrol to eyes is effective for treatment of normal tension glaucoma.

[4] = tested on: cataract; test: Example 62: cataract; details: person, right eye; 100 mg/l, 1 drop (50 μl) twice a day for 67 days
[5] = tested on: glaucoma; test: Example 58: glaucoma; details: person; 100 mg/l, 1 drop (50 μl) twice a day for 3 months
Source text: It can be confirmed that administration of trans-resveratrol with eye drops is effective for the treatment of glaucoma.

[6] = tested on: myopia; test: Example 37: myopia; details: 21 days; before 0.9
[7] = tested on: central retinal vein occlusion; test: Example 57: central retinal vein occlusion; details: person; 100 mg/l, 1 drop (50 μl) twice a day for 112 days
Source text: It can be confirmed that administration of trans-resveratrol with eye drops is effective for the treatment of central retinal vein occlusion.

[8] = tested on: cataract; test: Example 38: cataract; details: 49 days
[9] = tested on: dry eye and ischemic optic neuropathy; test: Example 61: dry eye and ischemic optic neuropathy
Source text: It can be confirmed that administration of trans-resveratrol is effective for the treatment of dry eye and ischemic optic neuropathy.

[10] = tested on: open-angle glaucoma; test: Example 39: open-angle glaucoma
Source text: It can be confirmed that it is effective for treatment of high tension glaucoma to lower intraocular pressure.

[11] = tested on: iridocyclitis; test: Example 60: iridocyclitis; details: person, right eye; 100 mg/l, 1 drop (50 μl) twice a day for 10 days
Source text: It can be confirmed that administration of trans-resveratrol is effective for the treatment of iridocyclitis.

[12] = tested on: Posner-Schlossmans' Syndrome (glaucoma); test: Example 40: Posner-Schlossmans' Syndrome; details: thereafter 100 mg/l eye drops, 1 drop (50 μl) once a day for 3 months
Protocol: Thereafter, 1 drop (50 μl) of eye drops containing trans-resveratrol (100 mg/l) included in cyclodextrin prepared in Example 32(1) was administered once a day for 3 months, then no attack occurred for 3 months or more.

[13] = tested on: corneal erosion (KSD); test: Example 36: corneal erosion; details: person; cyclodextrin-included eye drops of Example 32(1), 1 drop (50 μl) twice a day for 3 days
[14] = tested on: open-angle glaucoma; test: Example 41: open-angle glaucoma; details: person; 100 mg/l, 1 drop (50 μl) once a day for 14 days
Source text: It can be confirmed that administration of trans-resveratrol to eye is effective for treatment of high tension glaucoma.

Row | Compound | visual fields by OCTOPUS 1-2-3 static perimeter [1] | visual field [2] | visual fields [3] | opacity of cataract [4] | visual fields by OCTOPUS 1-2-3 static perimeter [5] | visual acuity Vs [6] | chorioretinal hemorrhage, left eye [7] | cataract opacity, slit lamp microscope [8] | corrected visual acuity Vs ([8]; before 1.2) | ischemic optic neuropathy ([9]; 46 days) | lacrimation and dry eye ([9]; person, 100 mg/l, 1 drop (50 μl) twice a day for 46 days) | intraocular pressure ToS ([10]; 98 days, before 22) | intraocular pressure ToD ([10]; person, 100 mg/l, 1 drop (50 μl) twice a day for 98 days, before 21) | iridocyclitis outcome [11] | period without attack [12] | corneal erosion symptom [13] | visual field, left eye [14]
1 | O=C(c1ccc(OCCN2CCCCC2)cc1)c1c(-c2ccc(O)cc2)sc2cc(O)ccc12 [raloxifene] | the visual fields were improved | visual field was improved | – | – | – | – | – | – | – | – | – | – | – | – | – | – | –
2 | Oc1ccc(/C=C/c2cc(O)cc(O)c2)cc1 [trans-resveratrol] | – | – | visual fields were improved | opacity of cataract was reduced | the visual fields were improved | 1.2 | chorioretinal hemorrhage was disappeared | cataract opacity was lightened | 1.5 | ischemic optic neuropath was improved | lacrimation was increased, dry eye was cured | 13 mmHg | 14 mmHG | iridocyclitis was cured | ≥ 3 months | the symptom was lightened | visual field was improved
